Measured values reported in patent publication US12624029B2, “JAK inhibitor compounds, method for synthesizing same and use thereof” (GALDERMA HOLDING SA, priority 2020, dated 2026).

Key:
[1] = tested on: Salmonella typhimurium TA98 and TA100; test: Mini Ames assay (TA98 and TA100); format: cell-based; conditions: for increase in the mean number of revertants: TA98 and TA100, with or without metabolic activation (S9)
Excerpt: The Ames test in micro-method (in 6-well plates=mini Ames) follows the general principles of the standard Ames's technique. The Ames test used strains of bacteria Salmonella typhimurium that carry mutations in the genes involved in histidine synthesis. These strains are auxotrophic mutants, they require histidine for growth but cannot produce it. The assay was used to observe the ability of the test item to induce reverse mutations allowing the bacteria to grow in a histidine-free medium. The number of bacteria that revert and acquire the wild-type ability to grow in the absence of histidine can be estimated by counting the colonies that develop upon incubation. The use of different strains allows the identification of different mechanisms of gene mutation (TA98 for detection of frameshift mutations and TA100 for detection of base pair substitutions).
In a number of cases, the test item itself is not directly mutagenic but its metabolic derivatives are.
A toxicity assessment was performed on complete nutriment agar plate (with histidine) to define the highest concentration to be used in the genotoxicity assay. Solutions were prepared in 100% DMSO. The first concentration analyzed in the well (6-well plate) was 500 μg per plate followed by 7 serial dilutions (2 times factor of dilution). […] The viability of the positive and negative controls was analyzed for each strain, in the presence or absence of metabolic activation system, and were compared with historical data to validate the study. […]
Test items, positive and negative controls were incubated with the 2 bacterial strains. After 48 h incubation at 37° C. with and without metabolic activation (S9), the prototrophic mutant colonies that had grown on the plates were counted. The results were expressed as the mean number of revertants for each condition tested (3 replicates each) and for each concentration of the test item and controls. Induction ration, corresponding to the ratio of revertants in presence of test item versus spontaneous revertant, was determined for each concentration.

[2] = tested on: different pharmacological targets; test: CEREP Safety Screen-44 in vitro pharmacology binding and enzyme/uptake assays; conditions: tested at 10 μM; FIGS. 2-5
Method: An in vitro pharmacology assay was conducted to assess the capability of the compounds to interact with different pharmacological targets when tested at 10 μM in different binding and enzyme/uptake assays. The included targets are indicative of potential effects in major organs and drug-drug interactions.
Compound binding was calculated as a % inhibition of the binding of a radioactively labelled ligand specific for each target. Compounds were tested at 1.0E-05 M. Compound enzyme inhibition effect was calculated as a % inhibition of control enzyme activity. Results showing an inhibition or stimulation higher than 50% are considered to represent significant effects of the test compounds.

Structure (SMILES)	mutagenicity ([1]; TA98 & TA100, with and without metabolic system)	increase in the mean number of revertants [1]	pharmacological effects in safety screen compared with Ruxolitinib [2]
C=CCCN(C)S(=O)(=O)C[C@H]1C[C@@H](Nc2c(C#N)cnc3[nH]ccc23)C1 [Compound C, N-(But-3-en-1-yl)-1-((cis)-3-((5-cyano-1H-pyrrolo[2,3-b]pyridin-4-yl)amino)cyclobutyl)-N-methylmethanesulfonamide]	not considered to be mutagenic	did not induce a biologically significant increase	significantly improved pharmacological effects over Ruxolitinib
CN(CC1CCC1)S(=O)(=O)C[C@H]1C[C@@H](Nc2c(C#N)cnc3[nH]ccc23)C1 [Compound D]	–	did not induce a biologically significant increase	significantly improved pharmacological effects over Ruxolitinib
